Assay [1] concerns the target CDK4/Cyclin D3 (Homo sapiens, UniProt P11802). Nature of the assay: Inhibition of recombinant human full length N-terminal GST-tagged CDK4/Cyclin-D3 co-expressed in baculovirus infected sf21 cells using Rb substrate in presence of [gamma33P]ATP after 10 mins by scintillation counting method.
Assay [2] has as its target T1, Histone deacetylase 1 (Homo sapiens, UniProt Q13547). Nature of the assay: Potency index, ratio of vorinostat IC50 to compound IC50 for HDAC1 (unknown origin).
Assay [3] concerns the target T1, Histone deacetylase 1. Nature of the assay: Inhibition of HDAC1 (unknown origin).

Sequence of CDK4/Cyclin D3 (P11802 whole entry): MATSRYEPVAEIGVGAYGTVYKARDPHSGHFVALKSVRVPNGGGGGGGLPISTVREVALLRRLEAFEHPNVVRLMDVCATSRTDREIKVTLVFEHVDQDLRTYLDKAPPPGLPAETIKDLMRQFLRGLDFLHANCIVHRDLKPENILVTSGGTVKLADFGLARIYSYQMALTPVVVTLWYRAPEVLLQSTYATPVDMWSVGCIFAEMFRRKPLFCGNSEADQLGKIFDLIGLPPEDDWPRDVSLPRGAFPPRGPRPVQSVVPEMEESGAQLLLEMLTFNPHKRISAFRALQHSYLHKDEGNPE
Sequence of CDK4/Cyclin D3 (P30281 whole entry, further chain): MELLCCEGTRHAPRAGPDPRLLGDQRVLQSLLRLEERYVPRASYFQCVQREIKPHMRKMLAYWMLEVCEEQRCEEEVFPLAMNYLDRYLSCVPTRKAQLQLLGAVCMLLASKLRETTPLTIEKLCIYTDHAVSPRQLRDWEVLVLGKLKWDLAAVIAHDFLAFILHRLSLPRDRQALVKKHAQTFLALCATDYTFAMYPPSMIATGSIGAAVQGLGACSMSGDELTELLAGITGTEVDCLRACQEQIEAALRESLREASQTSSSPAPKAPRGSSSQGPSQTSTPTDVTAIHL
T1 sequence (Q13547 whole entry): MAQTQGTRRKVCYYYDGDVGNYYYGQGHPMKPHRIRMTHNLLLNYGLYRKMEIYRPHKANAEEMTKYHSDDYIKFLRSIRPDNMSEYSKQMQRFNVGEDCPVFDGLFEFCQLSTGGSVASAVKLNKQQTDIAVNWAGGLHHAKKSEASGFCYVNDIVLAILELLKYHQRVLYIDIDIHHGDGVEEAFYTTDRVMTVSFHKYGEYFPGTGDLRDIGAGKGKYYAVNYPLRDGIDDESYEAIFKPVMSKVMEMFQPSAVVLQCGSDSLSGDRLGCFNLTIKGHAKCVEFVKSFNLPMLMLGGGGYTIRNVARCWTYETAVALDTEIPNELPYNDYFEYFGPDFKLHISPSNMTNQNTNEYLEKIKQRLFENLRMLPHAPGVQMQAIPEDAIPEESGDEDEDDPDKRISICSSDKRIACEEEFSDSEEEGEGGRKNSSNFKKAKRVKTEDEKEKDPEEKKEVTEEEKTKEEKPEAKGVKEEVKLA

Turning to `CN(C)C(=O)c1cc2cnc(Nc3ccc(C(=O)NCCCCC(=O)NO)cc3)nc2n1C1CCCC1`, in assay [1], the IC50 is 0.011 µM.

`COC(=O)CCCCCCC(=O)Nc1ccccc1Nc1ncc2cc(C(=O)N(C)C)n(C3CCCC3)c2n1`: the 50% inhibitory concentration (IC50) in assay [1] is over 5 µM.

For `COC(=O)CCCCC(=O)Nc1ccc(Nc2ncc3cc(C(=O)N(C)C)n(C4CCCC4)c3n2)cc1`, the 50% inhibitory concentration (IC50) in assay [1] turned out to be 0.0048 µM.

Consider `COC(=O)CCCCCCC(=O)Nc1ccc(Nc2ncc3nnn(C4CCCC4)c3n2)cc1`, for which the Ratio IC50 in assay [2] lay in the range of 10 to 100. In addition, the values for the IC50 in assay [3] and in assay [1] were over 5 µM and 0.857 µM, respectively.

For `CN(C)C(=O)c1cc2cnc(Nc3ccc(C(=O)NCCCCCCC(=O)NO)cc3)nc2n1C1CCCC1`, in assay [2], the Ratio IC50 is 10 to 100. Further, the 50% inhibitory concentration (IC50) in assay [3] was found to be 0.0014 µM; in assay [1], 0.012 µM.

With `COC(=O)CCCCCCC(=O)N1CCN(c2ccc(Nc3ncc4cc(C(=O)N(C)C)n(C5CCCC5)c4n3)nc2)CC1`, in assay [2], the Ratio IC50 lay within 10 to 100. Also, the IC50 in assay [3] is over 5 µM; in assay [1], 0.013 µM.

Regarding `COC(=O)CCCCCCC(=O)Nc1ccc(Nc2ncc3ncn(C4CCCC4)c3n2)cc1`, the Ratio IC50 in assay [2] was 10 to 100. The concentration for half-maximal inhibition (IC50) in assay [3] and in assay [1] was over 5 µM each time.

For the compound `CN(C)C(=O)c1cc2cnc(Nc3ccc(C(=O)NCCCCCC(=O)NO)cc3)nc2n1C1CCCC1`, in assay [2], the Ratio IC50 was in the range of 10 to 100. Besides, the half-inhibitory concentration (IC50) came to 0.00053 µM in assay [3] and 0.0096 µM in assay [1].

Regarding `COC(=O)CCCCCCC(=O)Nc1ccc(Nc2ncc3cc(C(=O)N(C)C)n(C4CCCC4)c3n2)nc1`, the Ratio IC50 in assay [2] lay in the range of 10 to 100. For the same compound, the IC50 in assay [3] is over 5 µM; in assay [1], 0.047 µM.

As for `CN(C)C(=O)c1cc2cnc(Nc3ccc(NC(=O)CCCCCCC(=O)NO)cn3)nc2n1C1CCCC1`, in assay [2], the Ratio IC50 lay in the range of 10 to 100. Moreover, the IC50 in assay [3] is 0.423 µM; in assay [1] it was 0.093 µM.

Consider `CCCCCCCC(=O)Nc1ccc(Nc2ncc3cc(C(=O)N(C)C)n(C4CCCC4)c3n2)cc1`, for which the IC50 in assay [1] stood at 0.029 µM.

For the compound `CN(C)C(=O)c1cc2cnc(Nc3ccc(N4CCN(C(=O)CCCCCCC(=O)NO)CC4)cn3)nc2n1C1CCCC1`, the Ratio IC50 in assay [2] is 10 to 100. Besides, the half-inhibitory concentration (IC50) in assay [3] was 0.039 µM; in assay [1] it was 0.013 µM.

Consider `CN(C)C(=O)c1cc2cnc(Nc3ccc(NC(=O)CCCCCCCC(=O)NO)cc3)nc2n1C1CCCC1`, for which the Ratio IC50 in assay [2] fell in the range of 10 to 100. In addition, the half-maximal inhibitory concentration (IC50) was 0.003 µM in assay [3] and 0.0081 µM in assay [1].

For the compound `CCCCCCCCC(=O)Nc1ccc(Nc2ncc3cc(C(=O)N(C)C)n(C4CCCC4)c3n2)cc1`, the IC50 in assay [1] is 0.123 µM.

For the compound `CN(C)C(=O)c1cc2cnc(Nc3ccccc3NC(=O)CCCCCCC(=O)NO)nc2n1C1CCCC1`, the Ratio IC50 in assay [2] lay in the range of 10 to 100. Besides, the values for the IC50 in assay [3] and in assay [1] were 0.037 µM and over 5 µM, respectively.

`COC(=O)CCCCCCCNC(=O)c1ccc(Nc2ncc3cc(C(=O)N(C)C)n(C4CCCC4)c3n2)cc1`: the IC50 in assay [1] amounted to 0.0082 µM.

Turning to `CN(C)C(=O)c1cc2cnc(Nc3cccc(NC(=O)CCCCCCC(=O)NO)c3)nc2n1C1CCCC1`, the Ratio IC50 in assay [2] lay in the range of 10 to 100. The IC50 was determined as 0.00084 µM in assay [3] and 0.03 µM in assay [1].

For `COC(=O)CCCCCCCC(=O)Nc1ccc(Nc2ncc3cc(C(=O)N(C)C)n(C4CCCC4)c3n2)cc1`, the IC50 in assay [1] was 0.024 µM.

Take `CN(C)C(=O)c1cc2cnc(Nc3ccc(NC(=O)CCCCCC(=O)NO)cc3)nc2n1C1CCCC1`: the Ratio IC50 in assay [2] is 10 to 100. In addition, the IC50 in assay [3] is 0.00084 µM; in assay [1], 0.01 µM.

As to `COC(=O)CCCCCCC(=O)NCc1ccc(Nc2ncc3cc(C(=O)N(C)C)n(C4CCCC4)c3n2)cc1`, in assay [1], the IC50 worked out at 0.025 µM.

Turning to `O=C(CCCCCCC(=O)Nc1ccc(Nc2ncc3nnn(C4CCCC4)c3n2)cc1)NO`, the Ratio IC50 in assay [2] lay in the range of 10 to 100. Also, the values for the IC50 in assay [3] and in assay [1] were 0.433 µM and 1.14 µM, respectively.

As for `COC(=O)CCCCCCNC(=O)c1ccc(Nc2ncc3cc(C(=O)N(C)C)n(C4CCCC4)c3n2)cc1`, in assay [1], the half-maximal inhibitory concentration (IC50) amounted to 0.011 µM.

With `COC(=O)CCCCCNC(=O)c1ccc(Nc2ncc3cc(C(=O)N(C)C)n(C4CCCC4)c3n2)cc1`, in assay [1], the IC50 came to 0.0073 µM.

Take `CN(C)C(=O)c1cc2cnc(Nc3ccc(CNC(=O)CCCCCCC(=O)NO)cc3)nc2n1C1CCCC1`: the Ratio IC50 in assay [2] fell in the range of 10 to 100. Further, the IC50 in assay [3] came to 0.053 µM; in assay [1] it was 0.01 µM.

Regarding `COC(=O)CCCCCNC(=O)Nc1ccc(Nc2ncc3cc(C(=O)N(C)C)n(C4CCCC4)c3n2)cc1`, in assay [1], the half-maximal inhibitory concentration (IC50) came to 0.023 µM.

In the case of `CCCCCCC(=O)Nc1ccc(Nc2ncc3cc(C(=O)N(C)C)n(C4CCCC4)c3n2)cc1`, the half-inhibitory concentration (IC50) in assay [1] is 0.027 µM.

For the compound `COC(=O)CCCCCCC(=O)NNc1ncc2cc(C(=O)N(C)C)n(C3CCCC3)c2n1`, the IC50 in assay [1] is over 5 µM.

For `CN(C)C(=O)c1cc2cnc(Nc3ccc(NC(=O)CCCCCCC(=O)O)cc3)nc2n1C1CCCC1`, the Ratio IC50 in assay [2] was in the range of 10 to 100. Besides, the half-maximal inhibitory concentration (IC50) was over 5 µM in assay [3] and 0.018 µM in assay [1].

Take `CN(C)C(=O)c1cc2cnc(Nc3ccc(C(=O)NCCCCCCCC(=O)NO)cc3)nc2n1C1CCCC1`: the Ratio IC50 in assay [2] was in the range of 10 to 100. In addition, the IC50 in assay [3] stood at 0.0016 µM; in assay [1], 0.026 µM.

`CN(C)C(=O)c1cc2cnc(Nc3ccc(NC(=O)CCCCCCCO)cc3)nc2n1C1CCCC1`: the Ratio IC50 in assay [2] is 10 to 100. The IC50 in assay [3] was over 5 µM; in assay [1], 0.01 µM.

Turning to `O=C(CCCCCCC(=O)Nc1ccc(Nc2ncc3ncn(C4CCCC4)c3n2)cc1)NO`, the Ratio IC50 in assay [2] is 10 to 100. Moreover, the concentration for half-maximal inhibition (IC50) in assay [3] is 0.0026 µM; in assay [1] it was over 5 µM.

As for `CN(C)C(=O)c1cc2cnc(Nc3ccc(NC(=O)CCCCC(=O)NO)cc3)nc2n1C1CCCC1`, in assay [2], the Ratio IC50 fell in the range of 10 to 100. Moreover, the concentration for half-maximal inhibition (IC50) in assay [3] stood at 0.027 µM; in assay [1] it was 0.011 µM.

As to `CN(C)C(=O)CCCCCCC(=O)Nc1ccc(Nc2ncc3cc(C(=O)N(C)C)n(C4CCCC4)c3n2)cc1`, the Ratio IC50 in assay [2] lay within 10 to 100. For the same compound, the 50% inhibitory concentration (IC50) is over 5 µM in assay [3] and 0.016 µM in assay [1].

With `CN(C)C(=O)c1cc2cnc(Nc3ccc(NC(=O)NCCCCCC(=O)NO)cc3)nc2n1C1CCCC1`, the Ratio IC50 in assay [2] fell in the range of 10 to 100. The half-maximal inhibitory concentration (IC50) in assay [3] was 0.0016 µM; in assay [1], 0.0084 µM.

For the compound `COC(=O)CCCCCCC(=O)Nc1ncc2cc(C(=O)N(C)C)n(C3CCCC3)c2n1`, in assay [1], the IC50 is over 5 µM.

For `COC(=O)CCCCCCC(=O)Nc1ccc(Nc2ncc3cc(C(=O)N(C)C)n(C4CCCC4)c3n2)cc1`, the Ratio IC50 in assay [2] was 10 to 100. In addition, the IC50 in assay [3] is over 5 µM; in assay [1], 0.012 µM.

In the case of `COC(=O)CCCCCC(=O)Nc1ccc(Nc2ncc3cc(C(=O)N(C)C)n(C4CCCC4)c3n2)cc1`, the IC50 in assay [1] was found to be 0.01 µM.

Regarding `COC(=O)CCCCNC(=O)c1ccc(Nc2ncc3cc(C(=O)N(C)C)n(C4CCCC4)c3n2)cc1`, the 50% inhibitory concentration (IC50) in assay [1] is 0.0063 µM.

In the case of `COC(=O)CCCCCCC(=O)Nc1cccc(Nc2ncc3cc(C(=O)N(C)C)n(C4CCCC4)c3n2)c1`, the IC50 in assay [1] worked out at 0.026 µM.

For `COC(=O)CCCCCCC(=O)Nc1ccc(Nc2ncc3cc(C(=O)N(C)C)n(C4CCCC4)c3n2)cn1`, the IC50 in assay [1] worked out at 0.016 µM.

`CCCCCC(=O)Nc1ccc(Nc2ncc3cc(C(=O)N(C)C)n(C4CCCC4)c3n2)cc1`: the Ratio IC50 in assay [2] was in the range of 10 to 100. For the same compound, the half-inhibitory concentration (IC50) in assay [3] was over 5 µM; in assay [1], 0.01 µM.

One may read the IC50 as the concentration at which inhibition is half-maximal.

Source of the values: ChEMBL document CHEMBL4020842, “Discovery of N1-(4-((7-Cyclopentyl-6-(dimethylcarbamoyl)-7 H-pyrrolo[2,3- d]pyrimidin-2-yl)amino)phenyl)- N8-hydroxyoctanediamide as a Novel Inhibitor Targeting Cyclin-dependent Kinase 4/9 (CDK4/9) and Histone Deacetlyase1 (HDAC1) against Malignant Cancer” (J Med Chem, 2018).
